This is an account of results in paper PMC4143145 (European journal of medicinal chemistry, 2014).

The IC50 is the concentration that gives 50% inhibition.

In experiment [1] the test system is Burkitt lymphoma CA46 cells. The experiment is described as follows: Growth inhibition of Burkitt lymphoma CA46 cells. The format is cell-based. The settings on record: Homo sapiens, CA46, read-out: IC50 in CA46 cells.
Experiment [2] deals with tubulin. The settings on record: highest concentration examined 100 µM; cited from earlier work.
For experiment [3], the system named is tubulin. The settings on record: cited from earlier work.
In experiment [4] the test system is Mcl-1. The experiment is described as follows: Western blot in HeLa cells. The format is cell-based, human. The settings on record: 25 µM, 24 h. (In general: In western blotting, separated proteins are transferred to a membrane and probed.)
In experiment [5] the test system is PBL not stimulated with PHA. The experiment can be described thus: Cytotoxicity for resting peripheral blood lymphocytes. The format is cell-based. The settings on record: Homo sapiens, Lymphocyte, read-out: IC50 PBLresting.
Experiment [6] relates to HeLa cells. The experiment can be described thus: Immunofluorescence of the microtubule network. The format is cell-based, human. The settings on record: 25 µM, 24 h.
Experiment [7] relates to HeLa cells. The experiment is described as follows: Annexin-V/PI flow cytometry. The settings on record: 24 or 48 h. Format: cell-based, human. (In general: A flow cytometer gives signals particle by particle.)
The test system of experiment [8] is Bcl-2. The experiment is described as follows: Western blot in HeLa cells. The format is cell-based, human. The settings on record: 25 µM, 24 h.
In experiment [9] the test system is cdc25C. The experiment can be described thus: Western blot in HeLa cells. Format: cell-based, human. The settings on record: 25 µM; for cdc25c expression: 48 h; for cdc25C forms: 24 h.
The subject of experiment [10] is cyclin B. The experiment can be described thus: Western blot in HeLa cells. The settings on record: 25 µM. Format: cell-based, human.
Experiment [11] deals with γ-H2A.X. The experiment can be described thus: Western blot in HeLa cells. The format is cell-based, human. The settings on record: 25 µM, 24 h.
Experiment [12] has as its system aurora kinase A. The experiment can be described thus: Western blot in HeLa cells. Format: cell-based, human. The settings on record: 25 µM, 24 h.

Molecules are shown by their SMILES.

For `COc1ccc(/C=C\c2cc(OC)c(OC)c(OC)c2)cc1O` [CA-4, combretastatin A-4], in [1], the concentration for half-maximal inhibition (IC50) is 0.02 ± 0.007 µM.

With `COc1ccc2c(c1OC)C(=O)O[C@@H]2[C@H]1c2c(cc3c(c2OC)OCO3)CCN1C` [Compound 1, (S)-6,7-dimethoxy-3-((R)-4′-methoxy-6′-methyl-5′,6′,7′,8′-tetrahydro[1,3]dioxolo-[4,5]isoquinolin-5′-yl)isobenzofuran-1(3H)-one], the “inhibition of colchicine binding (fluorescence)” value in experiment [2] is reported as “no activity”. Besides, in experiment [3], the “inhibition of [3H]colchicine binding to tubulin” value is given as “without success”.

With `COc1ccc2c(c1OC)C(=O)O[C@@H]2[C@H]1c2c(c(Br)c3c(c2OC)OCO3)CCN1C` [Compound 2, 9′-bromonoscapine, reference compound], in [4], the Mcl-1 band result was “strongly reduced”. In experiment [2], the “inhibition of colchicine binding (fluorescence)” value was “inhibition of colchicine binding”. Besides, the IC50 in experiment [5] is over 200 µM. Moreover, the “cells with induced spherical morphology (microtubule rearrangement)” value (from here on “cells with induced spherical morphology”) in experiment [6] was 70–80%. The “annexin-V positive cells (apoptosis)” value in experiment [7] is listed as “slightly more active than the other three compounds”. Also, the Bcl-2 expression entry in experiment [8] is reported as “reduced”. The cdc25c expression result in experiment [9] was “strongly decreased”.

On to `COc1ccc2c(c1OC)C(=O)O[C@@H]2[C@H]1c2c(c(C)c3c(c2OC)OCO3)CCN1C` [Compound 3, 9′-Methylnoscapine], for which the “cyclin B expression” value in [10] (24 h) was “increased expression”; in experiment [10] (48 h), “disappearance”. In experiment [4], the Mcl-1 band result is given as “strongly reduced”. The “expression of γ-H2A.X” value in [11] was “marked increase”. For the same molecule, the half-inhibitory concentration (IC50) in [5] was over 200 µM. Further, the “cells with induced spherical morphology” value in [6] is listed as 70–80%. Moreover, the aurora kinase levels entry in experiment [12] is on record as “increased”. In experiment [8], the Bcl-2 expression result was “reduced”.

As for `COc1ccc2c(c1OC)C(=O)O[C@@H]2[C@H]1c2c(c(-c3ccccc3)c3c(c2OC)OCO3)CCN1C` [Compound 4, 9′-Phenylnoscapine], in experiment [10] (24 h), the “cyclin B expression” value is “increased expression”. In addition, the “cyclin B expression” value in experiment [10] (48 h) is on record as “disappearance”. For the same molecule, the Mcl-1 band result in [4] was “strongly reduced”. The “expression of γ-H2A.X” value in [11] was “marked increase”. Moreover, the concentration for half-maximal inhibition (IC50) in [5] was over 200 µM. In [12], the aurora kinase levels entry was “increased”. Further, in [9], the cdc25C forms result was “slower migrating forms” and the cdc25c expression result is “strongly decreased”.

Consider `COc1ccc2c(c1OC)C(=O)O[C@@H]2[C@H]1c2c(c(-c3ccc(C)cc3)c3c(c2OC)OCO3)CCN1C` [Compound 5, 9′-(4-Methylphenyl)-noscapine], for which the “cyclin B expression” value in experiment [10] (24 h) is reported as “increased expression”. Also, in experiment [10] (48 h), the “cyclin B expression” value was “disappearance”. Besides, the “expression of γ-H2A.X” value in [11] was “marked increase”. Further, in [5], the IC50 is over 200 µM. Further, in experiment [12], the aurora kinase levels entry is on record as “increased”. Besides, in experiment [9], the cdc25C forms entry is reported as “slower migrating forms” and the cdc25c expression entry is “strongly decreased”.

For the molecule `COc1ccccc1-c1c2c(c(OC)c3c1OCO3)[C@H]([C@H]1OC(=O)c3c1ccc(OC)c3OC)N(C)CC2` [Compound 6, 9′-(2-Methoxyphenyl)-noscapine], in experiment [5], the IC50 was over 200 µM.

For `COc1cccc(-c2c3c(c(OC)c4c2OCO4)[C@H]([C@H]2OC(=O)c4c2ccc(OC)c4OC)N(C)CC3)c1` [Compound 7, 9′-(3-Methoxyphenyl)-noscapine], the half-maximal inhibitory concentration (IC50) in experiment [5] was over 200 µM. Besides, the “cells with induced spherical morphology” value in experiment [6] was 70–80%.

For `COc1ccc(-c2c3c(c(OC)c4c2OCO4)[C@H]([C@H]2OC(=O)c4c2ccc(OC)c4OC)N(C)CC3)cc1` [Compound 8, 9′-(4-Methoxyphenyl)-noscapine], in [5], the 50% inhibitory concentration (IC50) is over 200 µM.

Regarding `COc1ccc2c(c1OC)C(=O)O[C@@H]2[C@H]1c2c(c(-c3ccc4ccccc4c3)c3c(c2OC)OCO3)CCN1C` [Compound 9, 9′-(2-Naphthyl)-noscapine], the IC50 in experiment [5] was over 200 µM.
